Data taken from ChEMBL document CHEMBL2424645, “Phosphorylated ganciclovir derivatives: design, synthesis and in vitro and in vivo immunomodulatory activity” (Med Chem Res, 2013).
Calls of active or inactive are those of the source. No cut-off for these calls is given here.

Experiments:
[1] = Toxicity in Wistar albino rat; type: organism-based; settings: in vivo
Neutrophil [2] = experiment: Immunomodulatory activity in human neutrophils assessed as increase in intracellular killing activity at 1000 ug/mL after 20 mins by NBT dye reduction assay relative to control; type: functional; design: scale not given: the % may be the effect or the level left
Rattus norvegicus [3] = experiment: Immunomodulatory activity in high fat diet-induced obese Wistar albino rat impaired immune model assessed as CRP level at 8 mg/kg, po after 8 weeks by ELISA relative to high fat-diet fed rat with immune dysfunction; type: functional
Neutrophil [4] = experiment: Immunomodulatory activity in human neutrophils assessed as increase in intracellular killing activity at 100 ug/mL after 20 mins by NBT dye reduction assay relative to control; type: functional; design: scale not given: the % may be the effect or the level left
Neutrophil [5] = experiment: Immunomodulatory activity in human neutrophils assessed as increase in intracellular killing activity at 40 ug/mL after 20 mins by NBT dye reduction assay relative to control; type: functional; design: scale not given: the % may be the effect or the level left
Neutrophil [6] = experiment: Immunomodulatory activity in human neutrophils assessed as increase in intracellular killing activity at 10 ug/mL after 20 mins by NBT dye reduction assay relative to control; type: functional; design: scale not given: the % may be the effect or the level left
Neutrophil [7] = experiment: Immunomodulatory activity in human neutrophils assessed as increase in intracellular killing activity at 20 ug/mL after 20 mins by NBT dye reduction assay relative to control; type: functional; design: scale not given: the % may be the effect or the level left
Rattus norvegicus [8] = experiment: Immunomodulatory activity in high fat diet-induced obese Wistar albino rat impaired immune model assessed as TNF-alpha level at 8 mg/kg, po after 8 weeks by ELISA relative to vehicle-treated control; type: functional
Rattus norvegicus [9] = experiment: Immunomodulatory activity in high fat diet-induced obese Wistar albino rat impaired immune model assessed as IL-1 level at 8 mg/kg, po after 8 weeks by ELISA relative to relative to high fat-diet fed rat with immune dysfunction; type: functional
Rattus norvegicus [10] = experiment: Immunomodulatory activity in high fat diet-induced obese Wistar albino rat impaired immune model assessed as IL-6 level at 8 mg/kg, po after 8 weeks by ELISA relative to vehicle-treated control; type: functional
Rattus norvegicus [11] = experiment: Immunomodulatory activity in high fat diet-induced obese Wistar albino rat impaired immune model assessed as decrease in total neutrophils count at 8 mg/kg, po after 8 weeks by hematology analyser relative to control; type: functional, organism-based; design: dose 8 mg/kg
Rattus norvegicus [12] = experiment: Immunomodulatory activity in high fat diet-induced obese Wistar albino rat impaired immune model assessed as decrease in total lymphocytes count at 8 mg/kg, po after 8 weeks by hematology analyser relative to control; type: functional, organism-based; design: dose 8 mg/kg
Rattus norvegicus [13] = experiment: Immunomodulatory activity in high fat diet-induced obese Wistar albino rat impaired immune model assessed as decrease in total monocytes count at 8 mg/kg, po after 8 weeks by hematology analyser relative to control; type: functional, organism-based; design: dose 8 mg/kg

| Structure (SMILES) | LD50 [1] [mg/kg] | Activity (Neutrophil [2]) [%] | Activity (Rattus norvegicus [3]) | Activity (Neutrophil [4]) [%] | Activity (Neutrophil [5]) [%] | Activity (Neutrophil [6]) [%] | Activity (Neutrophil [7]) [%] | Activity (Rattus norvegicus [8]) | Activity (Rattus norvegicus [9]) | Activity (Rattus norvegicus [10]) | Activity (Rattus norvegicus [11]) | Activity (Rattus norvegicus [12]) | Activity (Rattus norvegicus [13]) |
| --- | --- | --- | --- | --- | --- | --- | --- | --- | --- | --- | --- | --- | --- |
| CCOC(=O)C(NCP1(=O)OCC(OCn2cnc3c(=O)[nH]c(N)nc32)CO1)c1ccccc1 (stereo not given) | 80 | 60.32 | inactive | 52.91 | 46.63 | 40.62 | 43.11 |  |  |  |  |  |  |
| NCCNCP1(=O)OCC(OCn2cnc3c(=O)[nH]c(N)nc32)CO1 (stereo not given) | 80 | 50.46 | inactive | 47.3 | 45.35 | 40.12 | 42.51 | inactive | inactive | inactive |  |  |  |
| Nc1nc2c(ncn2COC2COP(=O)(CNCCO)OC2)c(=O)[nH]1 (stereo not given) | 80 | 55.25 | inactive | 50.57 | 48.54 | 33.38 | 45.98 | inactive | inactive | inactive |  |  |  |
| CCOC(=O)C(NCP1(=O)OCC(OCn2cnc3c(=O)[nH]c(N)nc32)CO1)c1ccc(O)cc1 (stereo not given) | 80 | 62.25 | inactive | 52.31 | 49.49 | 39.58 | 42.46 |  |  |  |  |  |  |
| Nc1nc2c(ncn2COC2COP(=O)(COCCO)OC2)c(=O)[nH]1 (stereo not given) | 80 | 53.02 | inactive | 51.23 | 49.85 | 34.31 | 46.44 | inactive | inactive | inactive |  |  |  |
| CCOC(=O)C(CO)NCP1(=O)OCC(OCn2cnc3c(=O)[nH]c(N)nc32)CO1 (stereo not given) | 80 | 56.02 | inactive | 53.09 | 48.11 | 39.8 | 39.92 |  |  |  |  |  |  |
| CCC(CO)NCP1(=O)OCC(OCn2cnc3c(=O)[nH]c(N)nc32)CO1 (stereo not given) | 80 | 54.32 | inactive | 53.98 | 46.76 | 31.37 | 43.15 | inactive | inactive | inactive |  |  |  |
| Nc1nc2c(ncn2COC2COP(=O)(CSCCO)OC2)c(=O)[nH]1 (stereo not given) | 80 | 55.35 | inactive | 52.15 | 47.93 | 32.25 | 43.73 | inactive | inactive | inactive |  |  |  |
| CCOC(=O)C(CC(C)C)NCP1(=O)OCC(OCn2cnc3c(=O)[nH]c(N)nc32)CO1 (stereo not given) | 80 | 58.03 | inactive | 51.44 | 49.31 | 39.17 | 40.92 |  |  |  |  |  |  |
| Nc1nc2c(ncn2COC(CO)CO)c(=O)[nH]1 [GANCICLOVIR] | 80 | 60.11 |  | 58.23 | 55.89 | 39.43 | 53.21 |  |  |  |  |  |  |
| NCCSCP1(=O)OCC(OCn2cnc3c(=O)[nH]c(N)nc32)CO1 (stereo not given) | 80 | 57.91 | inactive | 50.36 | 49.32 | 33.77 | 45.64 | inactive | inactive | inactive |  |  |  |
| COC(=O)C(NCP1(=O)OCC(OCn2cnc3c(=O)[nH]c(N)nc32)CO1)C(C)C (stereo not given) | 80 | 65.14 | 22.3 ng/mL | 62.45 | 60.83 | 41.18 | 55.09 | 37.1 pg/mL | 123.6 pg/mL | 5.4 pg/mL | Active | Active | Active |
| CCOC(=O)C(N)CSCP1(=O)OCC(OCn2cnc3c(=O)[nH]c(N)nc32)CO1 (stereo not given) | 80 | 66.82 | 21.9 ng/mL | 60.16 | 58.04 | 45.03 | 56.34 | 36.5 pg/mL | 122.9 pg/mL | 5.2 pg/mL | Active | Active | Active |
